Where a name gives a salt, the structure may show the parent alone.
Each compound was assayed against T1, CCR-3 (Homo sapiens, UniProt P51677) (assay: CCR-3 competition binding SPA ([125I]eotaxin)). Conditions: inhibition of [125I]eotaxin binding to membranes of K562 cells stably expressing CCR-3; mean of at least two experiments; read-out: CCR-3 Binding Assay (pIC50) (converted).
T1 sequence (P51677 1-355): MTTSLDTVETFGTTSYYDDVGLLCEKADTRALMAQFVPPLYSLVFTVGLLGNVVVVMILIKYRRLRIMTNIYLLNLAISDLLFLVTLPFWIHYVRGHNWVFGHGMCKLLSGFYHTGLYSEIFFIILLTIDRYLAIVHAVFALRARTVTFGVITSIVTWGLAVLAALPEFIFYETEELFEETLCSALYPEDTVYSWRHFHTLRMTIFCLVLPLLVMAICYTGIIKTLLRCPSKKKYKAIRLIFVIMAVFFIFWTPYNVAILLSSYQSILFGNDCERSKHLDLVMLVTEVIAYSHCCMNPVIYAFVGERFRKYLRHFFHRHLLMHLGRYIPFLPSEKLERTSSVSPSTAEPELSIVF
Set-up: expressed in transfected cells
Description: A CCR-3 competition binding SPA (scintillation proximity assay) was used to assess the affinity of novel compounds for CCR-3. Membranes prepared from K562 cells stably expressing CCR-3 (2.5 μg/well) were mixed with 0.25 mg/well wheat-germ agglutinin SPA beads (Amersham) and incubated in binding buffer (HEPES 50 mM, CaCl2 1 mM, MgCl2 5 mM, 0.5% BSA) at 4° C. for 1.5 hr. Following incubation, 20 pM of [^125I] eotaxin (Amersham) and increasing concentrations of compound (1 pM to 30 μM) were added and incubated in a 96 well plate for 2 hr at 22° C. then counted on a Microbeta plate counter. The total assay volume was 100 μl. Competition binding data were analysed by fitting the data with a four parameter logistic equation. Data are presented as the mean pIC50 values (negative logarithm of the concentration of compound which inhibits [^125I]eotaxin binding by 50%) from at least two experiments.
Cc1ccc(CNC(=O)NCC2CN(Cc3ccc(Cl)c(Cl)c3)CCO2)cc1 (stereo not shown) [Example 3, N-{[4-(3,4-Dichlorobenzyl)morpholin-2-yl]methyl}-N′-(4-methylbenzyl)urea] was tested, and the IC50 was 0.0692 µM.
N#Cc1cccc(NC(=O)NCC2CN(Cc3ccc(Cl)c(Cl)c3)CCO2)c1 (stereo not shown) [Example 5, N-(3-Cyanophenyl)-N′-{[4-(3,4-dichlorobenzyl)morpholin-2-yl]methyl}urea] gave an IC50 of 0.117 µM.
O=C(NCC1CN(Cc2ccc(Cl)c(Cl)c2)CCO1)Nc1ccc(Cl)cc1 (stereo not shown) [Example 14, N-(4-Chlorophenyl)-N′-{[4-(3,4-dichlorobenzyl)morpholin-2-yl]methyl}urea] gave an IC50 of 0.661 µM.
O=C(NCC1CN(Cc2ccc(Cl)c(Cl)c2)CCO1)Nc1ccc(OC(F)F)cc1 (stereo not shown) [Example 16, N-{[4-(3,4-Dichlorobenzyl)morpholin-2-yl]methyl}-N′-[4-(difluoromethoxy)phenyl]urea] was tested, and the IC50 was 0.741 µM.
O=C(NCC1CN(Cc2cccc(I)c2)CCO1)Nc1ccc(Cl)cc1 (stereo not shown) [Example 21] was tested, and the IC50 was 0.955 µM.
O=C(NCC1CN(Cc2ccc(Cl)c(Cl)c2)CCO1)Nc1cccc(C(F)(F)F)c1 (stereo not shown) [Example 22, N-{[4-(3,4-Dichlorobenzyl)morpholin-2-yl]methyl}-N′-[3-(trifluoromethyl)phenyl]urea] gave an IC50 of 0.955 µM.
O=C(NCC1CN(Cc2ccc3ccccc3c2)CCO1)Nc1ccc(Cl)cc1 (stereo not shown) [Example 23, N-(4-Chlorophenyl)-N′-{[4-(2-naphthylmethyl)Morpholin-2-yl]methyl}urea] showed an IC50 of 0.832 µM.
For N#Cc1ccc(NC(=O)NCC2CN(Cc3ccc(Cl)c(Cl)c3)CCO2)cc1 (stereo not shown) [Example 25, N-(4-Cyanophenyl)-N′-{[4-(3,4-dichlorobenzyl)morpholin-2-yl]methyl}urea], the IC50 was 1 µM.
For O=C(NCC1CN(Cc2ccc(Cl)c(Cl)c2)CCO1)Nc1ccc(SC(F)(F)F)cc1 (stereo not shown) [Example 34, N-{[4-(3,4-Dichlorobenzyl)morpholin-2-yl]methyl}-N′-{4-[(trifluoromethyl)thio]phenyl}urea], the IC50 was 2 µM.
With O=C(NCC1CN(Cc2ccc(Cl)s2)CCO1)Nc1ccc(Cl)cc1 (stereo not shown) [Example 37, N-(4-Chlorophenyl)-N′-({4-[(5-chlorothien-2-yl)methyl]morpholin-2-yl}methyl)urea] the IC50 was 3.8 µM.
For C=Cc1ccc(CN2CCOC(CNC(=O)Nc3ccc(Cl)cc3)C2)cc1 (stereo not shown) [Example 38, N-(4-Chlorophenyl)-N′-{[4-(4-vinylbenzyl)morpholin-2-yl]methyl}urea], the IC50 was 1.91 µM.
Work on CCOC(=O)C(c1ccccc1)N1CCOC(CNC(=O)Nc2ccc(Cl)cc2)C1 (stereo not shown) [Example 44, Ethyl {2-[({[(4-chlorophenyl)amino]carbonyl}amino)methyl]morpholin-4-yl}(phenyl)acetate] yielded an IC50 of 10.5 µM.
With O=C(NCc1ccc(Cl)cc1)NCC1CN(Cc2ccc(Cl)c(Cl)c2)CCO1 (stereo not shown) [Example 47, N-(4-Chlorobenzyl)-N′-{[4-(3,4-dichlorobenzyl)morpholin-2-yl]methyl}urea] the IC50 was 0.0661 µM.
Work on CC(=O)Nc1cccc(CNC(=O)NCC2CN(Cc3ccc(Cl)c(Cl)c3)CCO2)c1 (stereo not shown) [Example 52, N-[3-({[({[4-(3,4-Dichlorobenzyl)morpholin-2-yl]methyl}amino)carbonyl]amino}methyl)phenyl]acetamide Formate] yielded an IC50 of 0.00178 µM.
With NC(=O)c1ccc(CNC(=O)NC[C@H]2CN(Cc3ccc(Cl)c(Cl)c3)CCO2)cc1 [Example 54, 4-({[({[(2S)-4-(3,4-Dichlorobenzyl)morpholin-2-yl]methyl}amino)carbonyl]amino}methyl)benzamide] the IC50 was 0.011 µM.
For Cn1nnc(CNC(=O)NC[C@H]2CN(Cc3ccc(Cl)c(Cl)c3)CCO2)n1 [Example 136, N-{[(2S)-4-(3,4-dichlorobenzyl)morpholin-2-yl]methyl}-N′-[(2-methyl-2H-tetraazol-5-yl)methyl]urea], the IC50 was 0.0158 µM.
For CNC(=O)c1ccc(CNC(=O)NC[C@H]2CN(Cc3ccc(Cl)c(Cl)c3)CCO2)cc1 [Example 149, 4-({[({[(2S)-4-(3,4-dichlorobenzyl)morpholin-2-yl]methyl}amino)carbonyl]amino}methyl)-N-methylbenzamide], the IC50 was 0.0158 µM.

The compounds below were run against T1, CCR-3 (assay: Eosinophil chemotaxis assay (eotaxin-induced)). Conditions: functional pKi; eosinophils from human peripheral blood; agonist eotaxin; read-out: CCR-3 Eosinophil Chemotaxis Assay (fpKi) (converted).
Assay type: cell-based
Set-up: Eosinophils were purified from human peripheral blood; endogenous in cells; host or cells: human peripheral blood eosinophils
Description: (b) Eosinophil Chemotaxis Assay.
Compounds were evaluated for their inhibitory effect on eosinophil chemotaxis. Eosinophils were purified from human peripheral blood by standard CD16 cell depletion using a Miltenyi cell separation column and a magnetic Super Macs magnet as previously described (Motegi & Kita, 1998; J. Immunology. 161:4340–6). Cells were re-suspended in RPMI 1640/10% FCS solution and incubated with calcein-AM (Molecular Probes) at 37° C. for 30 mins. Following incubation, the eosinophils were centrifuged at 400 g for 5 min and re-suspended in RPMI/FCS at 2.2 million/ml. Cells were then incubated in the presence of increasing concentration of compounds (1 pM to 30 μM) at 37° C. for 30 mins. For control responses cells were incubated with RPMI/FCS only. The agonist eotaxin (either a concentration response curve or for the functional inhibition curves an EC80 concentration) was added to the lower chamber of a 96 well chemotaxis plate (5 μm filter: Receptor Technologies). Eosinophils (50 μl of 2 million/ml cells) were added to the top chamber of the filter plate and incubated at 37° C. for 45 mins. Cells remaining on top of the chemotaxis filter were removed and the number of eosinophils which had migrated were quantified by reading the plate on a fluorescent plate reader. Inhibition curves for the effect of compounds on eosinophil chemotaxis were analysed by fitting the data with a four parameter logistic equation. Functional pKi values (fpKi) were generated using the equation below (Lazareno & Birdsall, 1995. Br. J. Pharmacol 109: 1110–9).
Work on COc1ccc(CNC(=O)NCC2CN(Cc3ccc(Cl)c(Cl)c3)CCO2)cc1 (stereo not shown) [Example 2, N-{[4-(3,4-Dichlorobenzyl)morpholin-2-yl]methyl}-N′-(4-methoxybenzyl)urea] yielded a Ki of 0.049 µM.
Work on Cc1cccc(CNC(=O)NCC2CN(Cc3ccc(Cl)c(Cl)c3)CCO2)c1 (stereo not shown) [Example 4, N-{[4-(3,4-Dichlorobenzyl)morpholin-2-yl]methyl}-N′-(3-methylbenzyl)urea] yielded a Ki of 0.0447 µM.
O=C(NCCc1ccccc1)NCC1CN(Cc2ccc(Cl)c(Cl)c2)CCO1 (stereo not shown) [Example 8, N-{[4-(3,4-Dichlorobenzyl)morpholin-2-yl]methyl}-N′-(2-phenylethyl)urea] was tested, and the Ki was 0.115 µM.
O=C(NCC1CN(Cc2ccc(Cl)c(Cl)c2)CCO1)Nc1cccc(Cl)c1 (stereo not shown) [Example 13, N-(3-Chlorophenyl)-N′-{[4-(3,4-dichlorobenzyl)morpholin-2-yl]methyl}urea] was tested, and the Ki was 0.407 µM.
In the case of CSc1cccc(NC(=O)NCC2CN(Cc3ccc(Cl)c(Cl)c3)CCO2)c1 (stereo not shown) [Example 18, N-{[4-(3,4-Dichlorobenzyl)morpholin-2-yl]methyl}-N′-[3-(methylthio)phenyl]urea], the Ki is reported as 1.45 µM.
O=C(NCC1CN(Cc2cccc3ccccc23)CCO1)Nc1ccc(Cl)cc1 (stereo not shown) [Example 19, N-(4-Chlorophenyl)-N′-{[4-(1 naphthylmethyl)morpholin-2-yl]methyl}urea] was tested, and the Ki was 1.1 µM.
Work on O=C(NCC1CN(Cc2cccc(Cl)c2)CCO1)Nc1ccc(Cl)cc1 (stereo not shown) [Example 26, N-{[4-(3-Chlorobenzyl)morpholin-2-yl]methyl}-N′-(4-chlorophenyl)urea] yielded a Ki of 1.41 µM.
O=C(NCc1cccc(Cl)c1)NCC1CN(Cc2ccc(Cl)c(Cl)c2)CCO1 (stereo not shown) [Example 48, N-(3-Chlorobenzyl)-N′-{[4-(3,4-dichlorobenzyl)morpholin-2-yl]methyl}urea] gave a Ki of 0.0389 µM.
For NC(=O)c1ccc(CNC(=O)NC[C@H]2CN(Cc3ccc(Cl)c(Cl)c3)CCO2)cc1 [Example 54, 4-({[({[(2S)-4-(3,4-Dichlorobenzyl)morpholin-2-yl]methyl}amino)carbonyl]amino}methyl)benzamide], the Ki was 0.0158 µM.
For C#CCNC(=O)NC[C@H]1CN(Cc2ccc(Cl)c(Cl)c2)CCO1 [Example 57, N-{[(2S)-4-(3,4-Dichlorobenzyl)morpholin-2-yl]methyl}-N′-prop-2-ynylurea], the Ki was 0.00977 µM.
Cn1nnc(CNC(=O)NC[C@H]2CN(Cc3ccc(Cl)c(Cl)c3)CCO2)n1 [Example 136, N-{[(2S)-4-(3,4-dichlorobenzyl)morpholin-2-yl]methyl}-N′-[(2-methyl-2H-tetraazol-5-yl)methyl]urea] showed a Ki of 0.00501 µM.
For CNC(=O)c1ccc(CNC(=O)NC[C@H]2CN(Cc3ccc(Cl)c(Cl)c3)CCO2)cc1 [Example 149, 4-({[({[(2S)-4-(3,4-dichlorobenzyl)morpholin-2-yl]methyl}amino)carbonyl]amino}methyl)-N-methylbenzamide], the Ki was 0.0158 µM.

These compounds were tested on ovalbumin sensitised guinea pigs (assay: Guinea-pig ovalbumin model: eosinophil infiltration and hyper-reactivity). Conditions: 0.2–20 mg/kg, oral route.
Assay type: in vivo
Description: (c) Guinea-pig Ovalbumin Model
Inhibition of Eosinophil Infiltration and Hyper-Reactivity in the Guinea Pig
In a method based on that described by Danahay et al., 1997, ovalbumin sensitised guinea pigs were dosed with mepyramine (30 mg kg^−1 ip) to protect against anaphylactic bronchospasm. Test compounds, dissolved in 10% DMSO and 90% PEG200, were given by the oral route, 30 minutes before ovalbumin challenge (10 minutes breathing of an aerosol generated from a 0.5% solution of ovalbumin). Hyper-reactivity of the airways to the thromboxane mimetic U46619, was measured 24 hours after ovalbumin challenge in unrestrained animals using a whole body plethysmograph (Buxco Ltd., USA). The guinea pigs were then sacrificed and the lungs lavaged. Total and differential leukocyte counts were then obtained for the bronchoalveolar lavage fluid and the percentage reduction in eosinophil accumulation determined (Sanjar et al., 1992). Data was presented as the inhibitory effect of the specified dose expressed as a percentage of the vehicle control response.
For O=C(NCC1CN(Cc2ccc(Cl)c(Cl)c2)CCO1)Nc1ccc(Cl)cc1 (stereo not shown) [Example 14, N-(4-Chlorophenyl)-N′-{[4-(3,4-dichlorobenzyl)morpholin-2-yl]methyl}urea], the “inhibition of lung eosinophilia” value was “showed inhibition”.

Same assay, conditions: 0.2–20 mg/kg, oral route, hyper-reactivity to U46619
O=C(NCC1CN(Cc2ccc(Cl)c(Cl)c2)CCO1)Nc1ccc(Cl)cc1 (stereo not shown) [Example 14, N-(4-Chlorophenyl)-N′-{[4-(3,4-dichlorobenzyl)morpholin-2-yl]methyl}urea] was tested, and the “inhibition of bronchial hyperreactivity” value was “showed inhibition”.

Source: patent US7157457B2, “Compounds useful in the treatment of inflammatory diseases” (Glaxo Group Limited, priority 2000, dated 2007)
